Patent publication US20020068712A1, “Use of decreasing levels of functional transient receptor potential gene product” (priority 1999, published 2002)

Tests used:
Type in all cases: cell-based, rat
RPAECs [1] = assay: Whole cell patch clamp determination of store-operated Ca2+ entry
Experimental: Whole cell patch clamp was utilized to measure transmembrane ion flux in thapsigargin-stimulated RPAECs. Confluent RPAECs were enzyme dispersed, seeded onto 35-mm plastic culture dishes, and then allowed to reattach for at least 24 h before patch-clamp experiments were performed. […] These cells were chosen for study because their morphology was consistent with RPAECs from a confluent monolayer. The extracellular and pipette solutions were composed of the following (in mM): 1) extracellular: 110 tetraethylammonium aspartate, 10 calcium aspartate, 10 HEPES, and 0.5 3,4-diaminopyridine; and 2) pipette: 130 N-mehyl-D-glucamine, 1.15 EGTA, 10 HEPES, 1 Ca(OH)2, and 2 Mg^2+-ATP. Both solutions were adjusted to 290-300 mosM with sucrose and pH 7.4 with methane sulfonic acid, and [Ca^2+]i was estimated as 100 nM (10). The pipette resistance was 2-5 MΩ. Data were obtained with a HEKA EPC9 amplifier (Lambrecht/Pfaltz) and sampled on-line with Pulse+Pulsefit software (HEKA). All recordings were made at room temperature (22° C.). To generate current-voltage (I-V) relationships, voltage pulses were applied from −100 to +100 mV in 20-mV increments, with a 200-ms duration during each voltage step and a 2-s interval between steps. The holding potential between each step was 0 mV.

RPAECs [2] = assay: [Ca2+]i measurement by fura 2 fluorescence
Experimental: RPAECs were seeded onto chambered glass coverslips (Nalge Nunc, Naperville, Ill.) and grown to confluence. [Ca^2+]i was estimated with the Ca^2+-sensitive fluorophore fura 2-AM (Molecular Probes, Eugene, Oreg.) according to methods previously described by our laboratory (38). Because this is the first report of [Ca^2+]i measurements in cultured RPAECS, a summary of the technique will be presented. RPAECs were washed with 2 ml of a HEPES (Fisher Scientific, Atlanta, Ga.)-buffered physiological salt solution (PSS) containing (in g/l) 6.9 NaCl, 0.35 KCl, 0.16 KH2PO4, 0.141 MgSO4, 2.0 D-glucose, and 2.1 NaHCO3. The loading solution (1 ml) consisted of PSS plus 3 μM fura 2-AM, 3 μl of a 10% pluronic acid solution, and 2 mM or 100 nM CaCl2. RPAECs were fura loaded for 20 min in a CO2 incubator at 37° C. After this loading period, the cells were again washed with PSS (2 ml) and treated with deesterification medium (PSS+2 mM or 100 nM CaCl2) for an additional 20 min. After deesterification, [Ca^2+]i was assessed with an Olympus 1×70 inverted microscope at ×400 with a xenon arc lamp photomultiplier system (Photon Technologies, Monmouth Junction, N.J.), and data were acquired and analyzed with PTI Felix software. Epifluorescence (signal averaged) was measured from three to four endothelial cells in a confluent monolayer, and the changes in [Ca^2+]i are expressed as the fluorescence ratio of the Ca^2+-bound (340-nm) to Ca^2+-unbound (380-nm) excitation wavelengths emitted at 510 nm.

RPAECs [3] = assay: Assessment of filamentous actin arrangement (confocal microscopy)
Experimental: Experiments to determine filamentous actin (F-actin) arrangement were conducted in parallel with those assessing endothelial cell shape. […] were seeded onto glass coverslips, and F-actin was stained with Oregon Green-phalloidin (Molecular Probes) with a standard fixation and staining protocol. Cells were analyzed by confocal microscopy (excitation at 496 nm and emmision at 520 nm). Micrographs were taken at multiple cellular depths (0.3-μm steps, 13-15 sections) and were used to deduce the microfilamentous cytoskeleton configurations of the cells.

RPAECs [4] = assay: Assessment of endothelial cell shape change (scanning electron micrographs)
Experimental: were seeded onto 35-mm plastic culture dishes and grown to confluence. Growth medium was replaced with experimental buffer (same as that used for [Ca^2+]i measurements but without fura 2), and the cells were subjected to one of the following protocols: 1) vehicle control (5 min) in 2 mM or 100 nM extracellular Ca^2+ concentration ([Ca^2+]o); 2) thapsigargin (1 μM, 5 min) in 2 mM or 100 nM ([Ca^2+]o; or 3) thapsigargin in 100 nM [Ca^2+]o+readdition of 2 mM CaCl2 (5 min). At the end of each experiment, the cell monolayers were fixed in 3% gluteraldehyde-PBS for 2 h. The cells were washed two times with 0.1 M cacodylate buffer, dehydrated by immersion in a series of ethanol dilutions, critical point dried in CO2, and covered with 20 nm of gold. Specimens were viewed at […] at a 15° inclination. Scanning electron micrographs were taken of representative areas in the monolayer by a pathologist blinded to the experimental protocols.

[5] = thapsigargin-stimulated current, data not shown
[6] = thapsigargin in 100 nM [Ca2+]o, then readdition of 2 mM [Ca2+]o

| Structure (SMILES) | effect on inward current at negative voltages (RPAECs [1]; [5]) | effect on outward current at positive voltages (RPAECs [1]; [5]) | [Ca2+]i response (fura 2 340/380 fluorescence ratio) (RPAECs [2]; thapsigargin 1 μM, 2 mM [Ca2+]o) | [Ca2+]i response after readdition of [Ca2+]o (RPAECs [2]; [6]) | peak and sustained plateau phases of [Ca2+]i response (RPAECs [2]; thapsigargin, 100 nM [Ca2+]o) | F-actin arrangement (RPAECs [3]; thapsigargin in low [Ca2+]o, then readdition of 2 mM [Ca2+]o) | F-actin arrangement (RPAECs [3]; thapsigargin, 2 mM [Ca2+]o) | F-actin arrangement (RPAECs [3]; thapsigargin, low (100 nM) [Ca2+]o, compared with low [Ca2+]o alone) | net inward current stimulated (RPAECs [1]; 1 μM thapsigargin in pipette, at −80 mV) [pA/pF] | slope conductance (RPAECs [1]; 1 μM thapsigargin in pipette, calculated from −100 to −20 mV without respect to cell capacitance) [nS] | effect on I-V curve (RPAECs [1]; 1 μM thapsigargin in pipette, whole cell, 3-5 min) | endothelial cell shape / intercellular gaps (RPAECs [4]; thapsigargin 1 μM, 5 min, 100 nM [Ca2+]o) | endothelial cell shape / intercellular gaps (RPAECs [4]; thapsigargin 1 μM, 5 min, 2 mM [Ca2+]o) | endothelial cell shape / intercellular gaps (RPAECs [4]; [6]) |
| --- | --- | --- | --- | --- | --- | --- | --- | --- | --- | --- | --- | --- | --- | --- |
| O=C(O)c1ccccc1Nc1ccccc1 [N-phenylanthranilic acid] | little effect | strongly attenuated | – | – | – | – | – | – | – | – | – | – | – | – |
| C/C=C(/C)C(=O)O[C@H]1C(C)=C2[C@H]([C@@H]1OC(=O)CCCCCCC)[C@@](C)(OC(C)=O)C[C@H](OC(=O)CCC)[C@@]1(O)[C@H]2OC(=O)[C@@]1(C)O [Thapsigargin, thapsigargin] | – | – | gradual increase in [Ca^2+]i to a peak level followed by a modest decline | immediate increase in [Ca^2+]i | significantly attenuated | appearance of dense, transcellular fibers and a decrease in peripheral F-actin staining | a decrease in peripheral F-actin density and an increase in the number and/or density of central transcellular F-actin filaments | only modest changes in F-actin arrangements | 5.45±0.90 | 1.64 | right shifted the I-V curve and increased the current magnitude | little change in morphology and a lack of interendothelial gaps | endothelial cell retraction and intercellular gap formation | pronounced cell retraction and gap formation |
